Key:
ΔF508-CFTR [1] = target: T1, ΔF508-CFTR (Homo sapiens, UniProt P13569, DEL508-508); test: CFTR cell surface levels using HRP-tagged ΔF508-CFTR expressing CFBE cells, in the presence of a co-corrector; assay type: cell-based; settings: HRP-tagged ΔF508-CFTR CFBE cells, in the presence of 3 μM co-corrector; for EC50: read-out: EC50
T1 construct: host or cells: CFBE41o-, doxycycline-inducible
Summary of the method: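 Chemiluminescent read-out of surface HRP (15 min, dark) after PBS washes. Activity is normalized as 100×(sample−DMSO)/(3 μM co-corrector alone−DMSO).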

ΔF508-CFTR [2] = target: T1, ΔF508-CFTR; test: CFTR cell surface levels using HRP-tagged ΔF508-CFTR expressing CFBE cells, intrinsic corrector capacity; assay type: cell-based; design: % Activation: concentration or dose not given beside the values; settings: HRP-tagged ΔF508-CFTR expressing CFBE41o- cells, compound alone (intrinsic corrector capacity), 20 hours at 33° C.; for EC50: read-out: EC50
Summary of the method: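 Surface ΔF508-CFTR was measured as HRP chemiluminescence from an extracellular-loop-4 tag, expressed as percent activity between DMSO and a […] corrector control.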

T1 sequence (P13569 with tags, fused parts or gaps DEL508-508): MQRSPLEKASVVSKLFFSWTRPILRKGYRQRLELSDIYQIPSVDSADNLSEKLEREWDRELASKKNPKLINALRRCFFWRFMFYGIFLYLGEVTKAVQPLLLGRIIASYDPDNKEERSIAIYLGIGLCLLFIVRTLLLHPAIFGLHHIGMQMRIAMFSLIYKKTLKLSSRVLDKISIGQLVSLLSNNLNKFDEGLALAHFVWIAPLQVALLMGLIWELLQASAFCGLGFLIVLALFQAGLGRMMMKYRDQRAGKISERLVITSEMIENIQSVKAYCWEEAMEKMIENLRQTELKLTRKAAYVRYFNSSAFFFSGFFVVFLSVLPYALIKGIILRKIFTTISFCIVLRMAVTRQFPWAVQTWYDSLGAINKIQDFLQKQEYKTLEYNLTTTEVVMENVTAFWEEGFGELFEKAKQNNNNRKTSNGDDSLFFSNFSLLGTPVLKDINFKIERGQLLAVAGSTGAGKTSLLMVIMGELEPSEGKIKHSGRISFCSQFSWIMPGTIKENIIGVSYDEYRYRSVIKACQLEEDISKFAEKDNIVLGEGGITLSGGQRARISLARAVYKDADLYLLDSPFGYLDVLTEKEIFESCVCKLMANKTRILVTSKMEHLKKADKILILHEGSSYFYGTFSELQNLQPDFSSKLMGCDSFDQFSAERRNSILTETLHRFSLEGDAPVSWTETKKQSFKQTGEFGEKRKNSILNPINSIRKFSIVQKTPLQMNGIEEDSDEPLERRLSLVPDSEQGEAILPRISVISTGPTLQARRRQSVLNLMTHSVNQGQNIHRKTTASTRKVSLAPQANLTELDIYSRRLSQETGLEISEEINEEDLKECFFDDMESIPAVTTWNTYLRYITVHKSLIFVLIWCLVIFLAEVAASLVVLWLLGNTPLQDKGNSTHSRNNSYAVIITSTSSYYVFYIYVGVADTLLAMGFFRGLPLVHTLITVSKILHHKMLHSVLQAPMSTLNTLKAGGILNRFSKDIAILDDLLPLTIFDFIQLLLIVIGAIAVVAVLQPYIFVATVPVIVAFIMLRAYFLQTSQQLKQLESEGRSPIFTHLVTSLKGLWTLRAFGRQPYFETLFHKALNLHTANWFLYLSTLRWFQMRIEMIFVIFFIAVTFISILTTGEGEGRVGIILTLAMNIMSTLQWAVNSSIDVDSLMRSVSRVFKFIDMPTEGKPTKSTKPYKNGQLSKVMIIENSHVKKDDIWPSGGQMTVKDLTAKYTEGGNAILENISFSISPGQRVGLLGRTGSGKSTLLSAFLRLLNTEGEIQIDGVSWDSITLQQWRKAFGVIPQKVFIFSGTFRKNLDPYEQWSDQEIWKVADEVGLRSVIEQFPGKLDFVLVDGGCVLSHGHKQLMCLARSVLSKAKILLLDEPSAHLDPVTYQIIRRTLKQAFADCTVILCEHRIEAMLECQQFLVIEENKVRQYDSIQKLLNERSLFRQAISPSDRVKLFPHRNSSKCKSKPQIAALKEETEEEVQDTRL

Compound | % Activation (ΔF508-CFTR [1]) [%] | EC50 (ΔF508-CFTR [1]) [nM] | % Activation (ΔF508-CFTR [2]) [%] | EC50 (ΔF508-CFTR [2]) [nM]
O=C(NS(=O)(=O)C1COC1)c1cc(N2CCC(N3CCOCC3)CC2)c2c(C3CCC3)nn(-c3ccc(F)cc3)c2n1 [Compound 506, 3-cyclobutyl-1-(4-fluorophenyl)-4-[4-(morpholin-4-yl)piperidin-1-yl]-N-(oxetane-3-sulfonyl)-1H-pyrazolo[3,4-b]pyridine-6-carboxamide] | 308.95 | 941 | 144.1 | 3330
O=C(NS(=O)(=O)C1CC1)c1cc(N2CCC(N3CCOCC3)CC2)c2c(C3CCC3)nn(-c3ccc(F)cc3)c2n1 [Compound 507, 3-cyclobutyl-N-(cyclopropanesulfonyl)-1-(4-fluorophenyl)-4-[4-(morpholin-4-yl)piperidin-1-yl]-1H-pyrazolo[3,4-b]pyridine-6-carboxamide] | 580.4 | 95.4 | 309.4 | 137
CC1(S(=O)(=O)NC(=O)c2cc(N3CCC(N4CCOCC4)CC3)c3c(C4CCC4)nn(-c4ccc(F)cc4)c3n2)CC1 [Compound 508, 3-cyclobutyl-1-(4-fluorophenyl)-N-(1-methylcyclopropane-1-sulfonyl)-4-[4-(morpholin-4-yl)piperidin-1-yl]-1H-pyrazolo[3,4-b]pyridine-6-carboxamide] | 448.8 | 90.3 | 217.5 | 182
Cc1cccc(-n2nc(C3CCC3)c3c(N4CCC(N5CCOCC5)CC4)cc(C(=O)NS(C)(=O)=O)nc32)c1 [Compound 509, 3-cyclobutyl-N-(methanesulfonyl)-1-(3-methylphenyl)-4-[4-(morpholin-4-yl)piperidin-1-yl]-1H-pyrazolo[3,4-b]pyridine-6-carboxamide] | 527.9 | 118 | 333.2 | 327
CS(=O)(=O)NC(=O)c1cc(N2CCC(N3CCOCC3)CC2)c2c(C3CCC3)nn(-c3ccc(C(F)(F)F)cc3)c2n1 [Compound 510, 3-cyclobutyl-N-(methanesulfonyl)-4-[4-(morpholin-4-yl)piperidin-1-yl]-1-[4-(trifluoromethyl)phenyl]-1H-pyrazolo[3,4-b]pyridine-6-carboxamide] | 428.8 | 171 | 234.9 | 298
Cc1cc(-n2nc(C3CCC3)c3c(N4CCC(N5CCOCC5)CC4)cc(C(=O)NS(=O)(=O)N(C)C)nc32)ccc1F [Compound 511, 3-cyclobutyl-N-(dimethylsulfamoyl)-1-(4-fluoro-3-methylphenyl)-4-[4-(morpholin-4-yl)piperidin-1-yl]-1H-pyrazolo[3,4-b]pyridine-6-carboxamide] | 432.95 | 78.9 | 248.55 | 88.3
CN(C)S(=O)(=O)NC(=O)c1cc(N2CCC(N3CCOCC3)CC2)c2c(C3CCC3)nn(-c3cccc(F)c3)c2n1 [Compound 512, 3-cyclobutyl-N-(dimethylsulfamoyl)-1-(3-fluorophenyl)-4-[4-(morpholin-4-yl)piperidin-1-yl]-1H-pyrazolo[3,4-b]pyridine-6-carboxamide] | 415.25 | 65.3 | 222.27 | 121
CN(C)S(=O)(=O)NC(=O)c1cc(N2CCC(N3CCOCC3)CC2)c2c(C3CCC3)nn(-c3cccc(C(F)(F)F)c3)c2n1 [Compound 513, 3-cyclobutyl-N-(dimethylsulfamoyl)-4-[4-(morpholin-4-yl)piperidin-1-yl]-1-[3-(trifluoromethyl)phenyl]-1H-pyrazolo[3,4-b]pyridine-6-carboxamide] | 476.3 | 66.7 | 278.5 | 101
Cc1cc(-n2nc(C3CCC3)c3c(N4CCC(N5CCOCC5)CC4)cc(C(=O)NS(C)(=O)=O)nc32)ccc1F [Compound 514, 3-cyclobutyl-1-(4-fluoro-3-methylphenyl)-N-(methanesulfonyl)-4-[4-(morpholin-4-yl)piperidin-1-yl]-1H-pyrazolo[3,4-b]pyridine-6-carboxamide] | 540.3 | 97.1 | 301.4 | 150
CS(=O)(=O)NC(=O)c1cc(N2CCC(N3CCOCC3)CC2)c2c(C3CCC3)nn(-c3cccc(F)c3)c2n1 [Compound 515, 3-cyclobutyl-1-(3-fluorophenyl)-N-(methanesulfonyl)-4-[4-(morpholin-4-yl)piperidin-1-yl]-1H-pyrazolo[3,4-b]pyridine-6-carboxamide] | 479.2 | 52.9 | 287.1 | 179
CS(=O)(=O)NC(=O)c1cc(N2CCC(N3CCOCC3)CC2)c2c(C3CCC3)nn(-c3cccc(C(F)(F)F)c3)c2n1 [Compound 516, 3-cyclobutyl-N-(methanesulfonyl)-4-[4-(morpholin-4-yl)piperidin-1-yl]-1-[3-(trifluoromethyl)phenyl]-1H-pyrazolo[3,4-b]pyridine-6-carboxamide] | 545.3 | 56.6 | 322.7 | 120
CNS(=O)(=O)NC(=O)c1cc(N2CCC(N3CCOCC3)CC2)c2c(C3CCC3)nn(-c3ccc(F)cc3)c2n1 [Compound 517, 3-cyclobutyl-1-(4-fluorophenyl)-N-(methylsulfamoyl)-4-[4-(morpholin-4-yl)piperidin-1-yl]-1H-pyrazolo[3,4-b]pyridine-6-carboxamide] | 520.08 | 75.8 | 320.5 | 184
CN1CCN(Cc2cc(C(=O)NS(C)(=O)=O)nc3c2c(C2CCC2)nn3-c2ccc(F)cc2)CC1 [Compound 518, 3-cyclobutyl-1-(4-fluorophenyl)-N-(methanesulfonyl)-4-[(4-methylpiperazin-1-yl)methyl]-1H-pyrazolo[3,4-b]pyridine-6-carboxamide] | 189.55 | 3130 | 35.86 | 
CS(=O)(=O)NC(=O)c1cc(CN2CCOCC2)c2c(C3CCC3)nn(-c3ccc(F)cc3)c2n1 [Compound 519, 3-cyclobutyl-1-(4-fluorophenyl)-N-(methanesulfonyl)-4-[(morpholin-4-yl)methyl]-1H-pyrazolo[3,4-b]pyridine-6-carboxamide] | 252.3 | 1020 | 114.4 | 3330
CN(C)S(=O)(=O)NC(=O)c1cc(CN2CCOCC2)c2c(C3CCC3)nn(-c3ccc(F)cc3)c2n1 [Compound 520, 3-cyclobutyl-N-(dimethylsulfamoyl)-1-(4-fluorophenyl)-4-[(morpholin-4-yl)methyl]-1H-pyrazolo[3,4-b]pyridine-6-carboxamide] | 207.1 | 924 | 60 | 1060
COCC1CCN(Cc2cc(C(=O)NS(=O)(=O)N(C)C)nc3c2c(C2CCC2)nn3-c2ccc(F)cc2)CC1 [Compound 521, 3-cyclobutyl-N-(dimethylsulfamoyl)-1-(4-fluorophenyl)-4-{[4-(methoxymethyl)piperidin-1-yl]methyl}-1H-pyrazolo[3,4-b]pyridine-6-carboxamide] | 217.3 | 712 | 31.93 | 
COC1CCN(C2CCN(c3cc(C(=O)NS(=O)(=O)N(C)C)nc4c3c(C3CCC3)nn4-c3ccc(F)cc3)CC2)C1 (stereo not shown) [Compound 524, 3-cyclobutyl-N-(dimethylsulfamoyl)-1-(4-fluorophenyl)-4-[4-(3-methoxypyrrolidin-1-yl)piperidin-1-yl]-1H-pyrazolo[3,4-b]pyridine-6-carboxamide] | 398.75 | 308 | 209.35 | 525
CN(C1CCOCC1)C1CCN(c2cc(C(=O)NS(=O)(=O)N(C)C)nc3c2c(C2CCC2)nn3-c2ccc(F)cc2)CC1 [Compound 528, 3-cyclobutyl-N-(dimethylsulfamoyl)-1-(4-fluorophenyl)-4-{4-[methyl(oxan-4-yl)amino]piperidin-1-yl}-1H-pyrazolo[3,4-b]pyridine-6-carboxamide] | 357.9 | 834 | 185.8 | 859

Reference: US10259810B2, “N-sulfonylated pyrazolo[3,4-b]pyridin-6-carboxamides and method of use” (AbbVie S.à.r.l., priority 2015, dated 2019)
